Measurements from US9364480B2, “Pharmaceutical composition for preventing or treating cancer, containing enoblock as active ingredient” (GWANGJU INSTITUTE OF SCIENCE AND TECHNOLOGY, priority 2012, dated 2016).
Entries after “also recorded” stand apart in the source; their conditions may differ.

Tests used:
[1] = test system: Bcl-Xl expression in HCT116 cancer cells; test: Bcl-Xl Western blot; type: cell-based; conditions: 48 h treatment
Procedure: (§1) FIG. 7. […] (b) Microscopic images of crystal violet stained HCT116 cells invaded onto the transwell inserts (scale bar=100 μm). […] (d) Microscopic images of crystal violet stained HCT116 cells migrated onto the transwell inserts (scale bar=100 μm). […] Cells were treated with 10 nM taxol and 10 nM vincristine, with or without 10 μM ENOblock. Error=SD; *=P<0.05 between the groups indicated on the graph. […] For the AKT Western blot, cells were treated with ENOblock for 24 h; for the Bcl-Xl Western blot, cells were treated with ENOblock for 48 h.

[2] = target: T1, Enolase purified from rabbit muscle (Oryctolagus cuniculus, UniProt P25704); test: Enolase activity assay; type: biochemical
T1 construct: Enolase purified from rabbit muscle was purchased from Sigma-Aldrich; purchased Sigma-Aldrich; host or cells: rabbit muscle
Procedure: FIG. 4. […] (a) Affinity chromatography study for ENOblock in HCT116 cancer cells. […] (b) Sequence identification for the enolase monomer subunit. […] Mascot scores above 100 were deemed to be significant. […] Twenty micrograms of cell lysate from YD-10B oral cancer cells or Huh7 hepatocytes were used as positive controls. […] As a positive control, ENOblock affinity matrix was incubated with 200 μg of HCT 116 cell lysate; 50 μg cell lysate from HCT116 cancer cells was used as a positive control for the enolase antibody.
Enolase purified from rabbit muscle was purchased from Sigma-Aldrich. A single unit of enolase is defined as the amount of enzyme that produces 1 μmol of phosphoenol pyruvate from phospho-D-glycerate/min in standard assay.^52 Enolase activity assay was measured at 37° C. by incubating pure enolase (3-9 U) in a buffer containing 50 mM imidazole-HCl (pH 6.8)(JUNSEI), 2.0 mM MgSO4 (JUNSEI) and 400 mM KCl (JUNSEI) in the absence or presence of ENOblock or NaF (Sigma). The reaction was initiated by adding 1 μmol of 2-phospho-D-glycerate, and the OD was measured after 10 min of reaction time with a spectrophometer at 240 nm.

HCT116 cancer cells [3] = test: Cancer cell invasion (transwell inserts, crystal violet); type: cell-based; conditions: HCT116, normoxia
Procedure: as §1

[4] = test system: PEPCK expression in adult zebrafish liver; test: PEPCK expression in adult zebrafish liver; conditions: 10 μM, 3 h
zebrafish larvae = test: Toxicological analysis using the zebrafish larvae system; type: in vivo, zebrafish (Danio rerio); conditions: for microscopic assessment of larvae morphology: 72 days post fertilization (dfp) zebrafish larvae
Procedure: FIG. 9. Toxicological study of ENOblock and in vivo analysis of anticancer activity. (A) Toxicological analysis of ENOblock treatment using the zebrafish larvae system. […] (B) Microscopic assessment of […] post fertilization (dfp) zebrafish larvae exposed to increasing doses of ENOblock. […] Error=SD; *=P<0.05 compared to the DMSO treated group. P value: 20 μM ENOblock=0.0121; 40 μM ENOblock=0.0019. […] DMSO treatment served as a control. Three representative embryos are shown from each experimental group, and distributed cancer cell foci are designated with blue arrows. […] Error=SD; *=P<0.05 compared to the DMSO-treated group.
The zebrafish (Danio rerio) cancer cell xenograft model is gaining increasing research prominence as a validated, convenient tool for testing candidate cancer drugs in vivo.^10,11 In addition, zebrafish is a relevant vertebrate platform for predicting toxicological effects in mammals.^12 We observed that 10 μM ENOblock treatment of developing zebrafish larvae was nontoxic (FIG. 9a-9c).

[5] = test system: 5′ AMP-activated protein kinase (AMPK) expression in hepatocytes; test: AMPK expression in hepatocytes; type: cell-based; conditions: 10 μM, 24 h
Source text: (§2) FIG. 10. […] Error=SD; *=P<0.05 compared to the no drug (DMSO-treated) group. […] Error=SD; *=P<0.05 for reduced PEPCK expression compared to the no drug (DMSO-treated) group.

HCT116 cancer cells [6] = test: Cancer cell migration (transwell inserts, crystal violet); type: cell-based; conditions: HCT116, normoxia
Procedure: as §1

HCT116 cancer cells [7] = test: Sensitivity to antitubulin chemotherapeutics taxol and vincristine; type: cell-based; conditions: 10 nM taxol or 10 nM vincristine with or without 10 μM ENOblock
Procedure: as §1

[8] = test system: AKT expression in HCT116 cancer cells; test: AKT Western blot; type: cell-based; conditions: 24 h treatment
Procedure: as §1

[9] = test system: HCT116-xenotransplanted zebrafish; test: Zebrafish tumor cell xenograft model; type: in vivo, zebrafish (Danio rerio)
Source text: FIG. 9. Toxicological study of ENOblock and in vivo analysis of anticancer activity. (A) Toxicological analysis of ENOblock treatment using the zebrafish larvae system. […] (B) Microscopic assessment of […] post fertilization (dfp) zebrafish larvae exposed to increasing doses of ENOblock. […] Error=SD; *=P<0.05 compared to the DMSO treated group. […] DMSO treatment served as a control. Three representative embryos are shown from each experimental group, and distributed cancer cell foci are designated with blue arrows. […] Error=SD; *=P<0.05 compared to the DMSO-treated group.
Zebrafish embryos were obtained using standard mating conditions^53 and staged for cell xenoplantation at 48 h post fertilization. After staining of cancer cells (described below), embryos were de-chorionized using micro-forceps and anesthetized with 0.0016% tricaine and positioned on their right side on a wet 1.0% agarose pad. Tumor cells were detached from culture dishes using 0.05% trypsin-EDTA and washed twice with PBS at room temperature. Cells were stained with 2 μg/ml DiI diluted in PBS and washed four times: once with FBS, twice with PBS and then once with 10% FBS diluted in PBS. Cells were kept on ice before injection. Cancer cells were counted by microscopy, suspended in 10% FBS and 100 cells were injected into the center of the yolk sac using an injector equipped with borosilicate glass capillaries (PV820 pneumatic picopump, World Precision Instruments). Injected embryos were transferred to a 96-well plate (one embryo/well) containing drug of interest diluted in […] E3 media (without methylene blue) and maintained at the pre-selected incubation temperature.

[10] = test system: glucose 6-phosphatase (G6 Pase) expression in hepatocytes; test: G6 Pase expression in hepatocytes; type: cell-based; conditions: 10 μM, 24 h
Source text: as §2

HEK kidney cells = test: Glucose uptake with fluorescent glucose probe 2-NBDG, kidney cells; type: cell-based; conditions: 10 μM, 24 h
[11] = test system: phosphoenolpyruvate carboxykinase (PEPCK) expression in Huh7 hepatocytes; test: PEPCK expression in hepatocytes; type: cell-based; conditions: 10 μM, 24 h
Source text: as §2

T1 sequence (P25704 whole entry): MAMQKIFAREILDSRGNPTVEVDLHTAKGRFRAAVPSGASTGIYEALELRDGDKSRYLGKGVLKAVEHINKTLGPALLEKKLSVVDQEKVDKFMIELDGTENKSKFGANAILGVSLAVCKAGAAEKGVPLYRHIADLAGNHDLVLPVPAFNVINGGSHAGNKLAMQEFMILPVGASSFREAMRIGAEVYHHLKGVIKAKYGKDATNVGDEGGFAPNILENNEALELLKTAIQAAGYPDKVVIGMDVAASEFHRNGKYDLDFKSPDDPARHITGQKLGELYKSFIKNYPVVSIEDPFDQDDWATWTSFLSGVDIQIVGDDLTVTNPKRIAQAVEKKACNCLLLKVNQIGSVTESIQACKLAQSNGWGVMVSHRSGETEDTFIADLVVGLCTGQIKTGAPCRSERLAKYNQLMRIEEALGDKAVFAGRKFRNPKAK

`NCCOCCOCCNC(=O)Cc1ccc(Nc2nc(NCc3ccc(F)cc3)nc(NCC3CCCCC3)n2)cc1` [ENOblock] was tested, and the Bcl-Xl expression [1] was “decreased the expression of AKT and Bcl-Xl”, the “inhibition of purified enolase activity” value ([2]; OD 240 nm, 37° C., 10 min) was “dose-dependently inhibited the activity of purified enolase; also recorded: enolase activity can be inhibited by ENOblock dose-dependently” and the “enolase inhibitory concentration compared with sodium fluoride (NaF)” value ([2]; purified enolase) was “markedly lower concentration than the wellknown enolase inhibitor”. The “treatment concentration reducing enolase activity to the level approximated with 1 mM NaF” value ([2]; purified enolase) was 2.5 µM, the cancer cell invasion (HCT116 cancer cells [3]; 0.625-2.5 μM) was “inhibited invasion dose-dependently” and the “treatment concentration at which cancer cell invasion is significantly inhibited” value (HCT116 cancer cells [3]; P value=0.0481) was 0.625 µM. The “hepatic PEPCK expression in vivo” value [4] was “inhibited PEPCK expression in adult zebrafish liver”, the “overall zebrafish larvae viability” value (zebrafish larvae; 10 μM) was “did not affect viability” and the “overall zebrafish larvae viability” value (zebrafish larvae; 20 μM) was “reduced overall zebrafish larvae viability”. The “overall zebrafish larvae viability” value (zebrafish larvae; 40 μM) was “reduced overall zebrafish larvae viability”, the “microscopic assessment of larvae morphology” value (zebrafish larvae; 20 μM) was “produced an abnormally large swim bladder” and the “microscopic assessment of larvae morphology” value (zebrafish larvae; 40 μM) was “produced multiple abnormalities in the larvae”. For the same compound, the “toxicity / tolerability (developmental parameters)” value (zebrafish larvae; zebrafish larvae, 10 μM) was “could be tolerated by the larvae; also recorded: nontoxic”, the ability to swim (zebrafish larvae; zebrafish larvae, 20 μM) was “inhibited the ability to swim” and the AMPK expression [5] was “did not affect expression of the enzymes”. For the same compound, the cancer cell migration (HCT116 cancer cells [6]) was “inhibited cell migration dose-dependently”, the “inhibition of cell migration compared with LY294002” value (HCT116 cancer cells [6]) was “more effective than LY294002 at inhibiting cell migration” and the “sensitivity to taxol and vincristine (cytotoxicity)” value (HCT116 cancer cells [7]) was “increased sensitivity to the antitubulin chemotherapeutics taxol and vincristine”. For the same compound, the AKT expression [8] was “decreased the expression of AKT and Bcl-Xl”, the “number of embryos showing cancer cell migration and metastasis (dissemination) from the yolk sac injection site” value ([9]; 10 μM for 96 h, DMSO control) was “reduced the number of embryos showing migration and metastasis; also recorded: reduced cancer cell dissemination” and the “quantification of xenotransplanted cancer cell microfoci” value ([9]; 10 μM for 96 h, vs DMSO-treated group) was “significantly reduced cancer cell migration and metastasis”. The “viability of xenotransplanted cancer cells” value ([9]; normoxia) was “without noticeably affecting cancer cell viability”, the “glucose 6-phosphatase (G6 Pase) expression” value [10] was “did not affect expression of the enzymes” and the “glucose uptake (2-NBDG)” value (HEK kidney cells) was “induced glucose uptake”. For the same compound, the PEPCK expression [11] was “inhibited expression of PEPCK”.
